The values that follow come from patent US12497356B2, “Stable formulation of arylsulfonylpropenenitriles” (KEMIRA OYJ, priority 2019, dated 2025).

Data set [1] can be described thus: Stability with different solvents (initial tests, HPLC-DAD). The format is physicochemical. The settings on record: room temperature. On the procedure:
The stability of (E)-3-tosylacrylonitrile in different solvents, concentrations and temperatures was studied. The initial tests were conducted at room temperature and the tested solvents were i) propylene carbonate; ii) ethanol; iii) dimethylsulfoxide (DMSO); iv) combination of 35% ethanol-65% propylene glycol; v) water at pH 4; and water at pH 8. The amount of (E)-3-tosylacrylonitrile was analysed with HPLC-DAD. For sample pre-treatment, an approximately 1.45 mg/ml solution of (E)-3-tosylacrylonitrile was prepared in acetonitrile and the solution was analysed by HPLC. Quantification was performed using external (ESTD) calibration with authentic standards. Results from the initial tests with propylene carbonate, ethanol, dimethylsulfoxide, 35% ethanol-65% propylene glycol, and water are presented in FIG. 1.

Data set [2] in a line: Long-time stability in propylene carbonate (second round of tests, HPLC-DAD). Type of data set: physicochemical. The method, then:
The amount of (E)-3-tosylacrylonitrile was analysed with HPLC-DAD. For sample pre-treatment, an approximately 1.45 mg/ml solution of (E)-3-tosylacrylonitrile was prepared in acetonitrile and the solution was analysed by HPLC. Quantification was performed using external (ESTD) calibration with authentic standards. After the initial tests, a second round of tests were conducted with propylene carbonate. The stability of (E)-3-tosylacrylonitrile in propylene carbonate was tested at 10 mg/ml and 50 mg/ml concentrations and at different temperatures. The effect of light on the stability was also examined (FIGS. 2 and 3).

Regarding `Cc1ccc(S(=O)(=O)/C=C/C#N)cc1` [(E)-3-tosylacrylonitrile], in data set [1] (propylene carbonate), the “dissolving in propylene carbonate” value is on record as “dissolved immediately” and the “stability in propylene carbonate (short-term)” value is listed as “stable for at least one month”. Further, in data set [1] (most tested solvents (ethanol, DMSO, 35% ethanol-65% propylene glycol, water pH 4, water pH 8)), the “dissolving in the tested solvent” value is reported as “did not dissolve thoroughly in the tested solvent or dissolving continued for several days”. In data set [2] (10 mg/ml and 50 mg/ml, all tested conditions (different temperatures, light), 6 months), the “final concentration of (E)-3-tosylacrylonitrile after 6 months” value is “above 90%”. Further, the “degradation in propylene carbonate” value in data set [2] (10 and 50 mg/ml) is recorded as “slow”. For the same compound, the “stability in propylene carbonate” value in data set [2] (10 and 50 mg/ml, different temperatures, light) was “good even in harsh conditions”.
